# Measured values reported in paper PMC12848680, “Microbial Cross-Talk: Unlocking the Cytochalasin Diversity from a Termite-Associated Xylaria” (JACS Au, 2025).
# Read-outs that look alike come from different tables or passages of the source.
# Legend:
# [1] = system: A549 (human lung carcinoma cell line); experiment: Cytotoxicity assay (MTT, 5 d) on A549; assay type: cell-based; conditions: for IC50: Homo sapiens, A549, 120 h, MTT, 5 d incubation; for Cytotoxic activity against A549 (in words): positive control doxorubicin
# Experimental: (§1) Cytotoxicity assay: A549 (human lung carcinoma cell line; ACC 107) and CHO-K1 (chinese hamster ovary cells; ACC 110) were obtained from the German Collection of Microorganisms and Cell Cultures (DSMZ) and cultured under the conditions recommended by the depositor. Cells were propagated in Dulbeccos’s Modified Eagle’s Medium (DMEM) and Ham’s F12 medium, respectively, supplemented with 10% fetal bovine serum (FBS), and seeded at 6×10^3 cells per well of 96-well plates in 120 μL of complete medium. After 2 h of equilibration (37 °C, 5% CO2), the cells were treated with a serial dilution of cytochalasins in 60 µL growth medium. Cytochalasins, doxorubicin as reference, as well as the solvent control were tested as duplicates in two independent experiments. After 5 d of incubation (37 °C, 5% CO2), a total of 20 μL of 5 mg/ml MTT (thiazolyl blue tetrazolium bromide) in phosphate -buffered saline (PBS) were added to each well […]
# (§2) and the cells were further incubated for 2 h at 37 °C before the supernatant was discarded.
# (§3) Subsequently, the cells were washed with 100 μL of PBS and treated with 100 μl of 2-propanol/10 N HCl (250:1) to dissolve formazan granules. Cell viability was measured as percentage relative to the respective solvent control by measuring the absorbance at 570 nm using a microplate reader (Tecan Infinite M200Pro). GraphPad Prism (version 10.0.3, GraphPad, Boston, MA, USA) was used for sigmoidal curve fitting to determine the IC50 values.
# [2] = system: CHO-K1 (chinese hamster ovary cells); experiment: Cytotoxicity assay (MTT, 5 d) on CHO-K1; assay type: cell-based; conditions: Cricetulus griseus, CHO-K1, 120 h
# Experimental: as §1, §2, §3
# in vitro [3] = assay type: in vitro ADME, mouse; conditions: for microsomal CLint: C57BL/6, mouse, microsomes; for half-life: mouse, read-out: Mouse liver microsome t1/2
# Experimental: Assays in liver microsomes: For metabolic stability, the compound (1 μM) was incubated with 0.5 mg/mL pooled mouse (C57BL/6) microsomes (Xenotech, Kansas City, USA), 2 mM NADPH, 10 mM MgCl2 at 37 °C for 120 min on a microplate shaker. The metabolic stability of testosterone, verapamil and ketoconazole were determined in parallel to confirm the enzymatic activity of mouse/rat liver microsomes. The incubation was stopped after defined time points by precipitation of aliquots of the incubation mixture with 2 volumes of cold internal standard solution (15 nM diphenhydramine in 10% methanol/acetonitrile). Samples were stored on ice until the end of the incubation and precipitated protein was removed by centrifugation (15 min, 4 °C, and 4,000 g). Concentration of the remaining test compound at the different time points was analyzed by HPLC-MS/MS (Vanquish Flex coupled to a TSQ Altis Plus, Thermo Fisher, Dreieich, Germany) and used to determine half-life (t1/2). […]
# in vitro [4] = assay type: in vitro ADME, mouse; conditions: for half-life at 1 μM: 1 μM compound, pooled CD-1 mouse plasma, read-out: Mouse plasma t1/2
# Experimental: Plasma stability assays: To determine stability in plasma, the compound (1 μM) was incubated with pooled CD-1 mouse plasma (Neo Biotech, Nanterre, France). Samples were taken by mixing aliquots with 4 volumes of cold internal standard solution (12.5 nM diphenhydramine in 10% methanol/acetonitrile). The plasma stability of procain, propantheline and diltiazem were determined in parallel to confirm the enzymatic activity. Samples were stored on ice until the end of the incubation and precipitated protein was removed by centrifugation (15 min, 4 °C, 4,000 g, two centrifugation steps). Concentration of the remaining test compound at the different time points was analyzed by HPLC-MS/MS (Vanquish Flex coupled to a TSQ Altis Plus, Thermo Fisher, Dreieich, Germany). […]
# E. coli ΔacrB (JW0451-2) = experiment: Antibacterial activity against E. coli ΔacrB; assay type: cell-based; conditions: Escherichia coli, read-out: E. coli ΔacrB (JW0451-2) MIC
# [5] = system: Staphylococcus aureus Newman; experiment: Antibacterial activity against S. aureus Newman; assay type: cell-based; conditions: Table S22
# [6] = Table 1, intrinsic clearance from microsomal metabolism data
# [7] = Table 1, 1 μM compound, 0.5 mg/mL pooled C57BL/6 microsomes, 120 min
# [8] = Table S22, intrinsic clearance calculated from microsomal metabolism data
# [9] = Table S22, 1 μM compound, 0.5 mg/mL pooled C57BL/6 microsomes
SMILES,IC50 ([1]; Table 1),"IC50 ([2]; Table 1, 5 d incubation)",Cytotoxic activity against A549 (in words) [1],microsomal CLint (in vitro [3]; [6]),half-life (in vitro [3]; [7]),half-life at 1 μM (in vitro [4]; Table 1),"Compound remaining in mouse plasma (in vitro [4]; Table 1, at 240 min)","Compound remaining in mouse plasma (in vitro [4]; Table S22, at 4 h)",MIC (E. coli ΔacrB (JW0451-2)),MIC [5],"IC50 ([2]; Table S22, 5 d incubation)",IC50 ([1]; Table S22),microsomal CLint (in vitro [3]; [8]),half-life (in vitro [3]; [9]),half-life at 1 μM (in vitro [4]; Table S22),Mouse liver microsome t1/2 (in vitro [3]; [9])
"COc1cccc2c1C(=O)c1c(O)c3c(c(O)c1C2=O)C[C@@](O)(C(=O)CO)C[C@@H]3O[C@H]1C[C@H](N)[C@H](O)[C@H](C)O1 [doxorubicin, reference compound]",0.3 µg/mL,–,–,–,–,–,–,–,–,–,–,–,–,–,–,–
"CC(=O)OC1C2OC2C(C)C(=O)C(C)CC=CC2C(O)C(C)=C(C)C3C(Cc4ccccc4)NC(=O)C213 (centres unmarked) [Compound 5, 18-desoxy-19,20-epoxycytochalasin C]",0.87 ± 1.38 µg/mL,9.88 ± 7.69 µg/mL,comparable to the positive control,132 ± 38 µL/min/mg,11 ± 3 min,> 240 min,74 ± 5%,>240 (74 ± 5% at 4 h),> 64 µg/mL,> 64 µg/mL,–,–,–,–,–,–
"CC1=C(C)C2C(Cc3ccccc3)NC(=O)C23C(O)C2OC2C(C)(O)C(=O)C(C)CC=CC3C1O (centres unmarked) [Compound 4, deacetyl-19,20-epoxycytochalasin C]",–,–,–,–,–,–,–,–,> 64 µg/mL,> 64 µg/mL,4.63 ± 4.23 µg/mL,1.07 µg/mL,26.2 ± 0.1 µL/min/mg,53.1 ± 0.2 min,> 240 min,–
"CC1=C(C)C2C(Cc3cccc(Cl)c3)NC(=O)C23C(O)C2OC2C(C)(O)C(=O)C(C)CC=CC3C1O (centres unmarked) [Compound 12, m-chloro-deacetyl-19,20-epoxycytochalasin C]",–,–,–,–,–,–,–,–,> 64 µg/mL,> 64 µg/mL,2.02 ± 1.2 µg/mL,> 37 µg/mL,39 ± 12 µL/min/mg,36 ± 10 min,> 240 min,–
"CC1CC=CC2C3OC3(C)C(C)C3C(Cc4ccccc4)NC(=O)C23C(O)C2OC2C(C)C1=O (centres unmarked) [Compound 1, deacetyl-18-desoxy-19,20-epoxycytochalasin Q]",–,–,–,–,–,–,–,–,> 64 µg/mL,> 64 µg/mL,1.21 ± 0.31 µg/mL,0.32 ± 0.1 µg/mL,102 ± 13 µL/min/mg,13.8 ± 1.8 min,> 240 min,–
"CC(=O)OC1C(C)=C(C)C2C(Cc3ccccc3)NC(=O)C23C1C=CCC(C)C(=O)C(C)(O)C1OC1C3OC(C)=O (centres unmarked) [Compound 23, 7-acetyl-19,20-epoxycytochalasin C]",> 37 µg/mL,15.7 ± 3.05 µg/mL,pronounced reduced activity,231 ± 36 µL/min/mg,6.1 ± 1 min,> 240 min,–,–,> 64 µg/mL,> 64 µg/mL,–,–,–,–,–,–
"CC(=O)OC1C2OC2C(C)(O)C(=O)C(C)CC=CC2C(O)C(C)=C(C)C3C(Cc4cccc(Cl)c4)NC(=O)C213 (centres unmarked) [Compound 11, m-chloro-19,20-epoxycytochalasin C]",0.04 µg/mL,0.67 ± 0.53 µg/mL,lower nanomolar activities,52.7 ± 2.5 µL/min/mg,–,> 240 min,–,–,> 64 µg/mL,> 64 µg/mL,–,–,–,26.4 ± 1.2 min,–,–
"C[C@H]1C/C=C/[C@H]2[C@@H]3O[C@]3(C)[C@@H](C)[C@H]3[C@H](Cc4ccccc4Br)NC(=O)[C@]32C(=O)C[C@@H](O)[C@@](C)(O)C1=O [Compound 21, o-bromo-19-hydroxy-21-oxocytochalasin Q]",–,–,–,–,–,–,–,–,> 64 µg/mL,> 64 µg/mL,3.04 ± 0.18 µg/mL,0.79 ± 0.24 µg/mL,124 ± 9 µL/min/mg,11.2 ± 0.8 min,> 240 min,–
"CC(=O)OC1C2OC2C(C)(O)C(=O)C(C)CC=CC2C3OC3(C)C(C)C3C(Cc4ccccc4)N(C(C)=O)C(=O)C213 (centres unmarked) [Compound 24, N-acetyl-19,20-epoxycytochalasin Q]",–,–,–,–,–,–,–,–,> 64 µg/mL,> 64 µg/mL,3.06 ± 0.5 µg/mL,0.72 ± 0.12 µg/mL,558 ± 58 µL/min/mg,2.5 ± 0.3 min,> 240 min,–
"CC1CC=CC2C3OC3(C)C(C)C3C(Cc4ccccc4)NC(=O)C23C(O)C2OC2C(C)(O)C1=O (centres unmarked) [Compound 7, deacetyl-19,20-epoxycytochalasin Q]",–,–,–,–,–,–,–,–,> 64 µg/mL,> 64 µg/mL,3.78 ± 0.3 µg/mL,2.56 ± 0.94 µg/mL,14 ± 3 µL/min/mg,102 ± 24 min,> 240 min,–
"C#CCCC1(CCC(=O)OC2C(C)=C(C)C3C(Cc4ccccc4)NC(=O)C34C2C=CCC(C)C(=O)C(C)(O)C2OC2C4OC(C)=O)N=N1 (centres unmarked) [Compound 25, 7-diazirin-19,20-epoxycytochalasin C]",24.9 µg/mL,14.2 ± 1.93 µg/mL,pronounced reduced activity,907 ± 388 µL/min/mg,1.7 ± 0.6 min,> 240 min,–,–,> 64 µg/mL,> 64 µg/mL,–,–,–,–,–,–
"CC(=O)OC1C2OC2C(C)(O)C(=O)C(C)CC2OC2C2C3OC3(C)C(C)C3C(Cc4ccccc4)NC(=O)C132 (centres unmarked) [Compound 8, 19,20-epoxycytochalasin R]",–,–,–,–,–,–,–,–,> 64 µg/mL,> 64 µg/mL,17.3 ± 8.94 µg/mL,> 37 µg/mL,37 ± 4 µL/min/mg,38 ± 4 min,> 240 min,–
"CC(=O)OC1C2OC2C(C)(O)C(=O)C(C)CC=CC2C(O)C3(C)OC3(C)C3C(Cc4ccccc4)NC(=O)C213 (centres unmarked) [Compound 27, 19,20-epoxycytochalasin N]",0.84 ± 0.04 µg/mL,10.6 ± 1.42 µg/mL,–,< 11.6 µL/min/mg,> 120 min,133 ± 9 min,–,–,> 64 µg/mL,> 64 µg/mL,–,–,–,–,–,>120 min
"C=C1C(C)C2C(Cc3ccccc3)NC(=O)C23C(C=CCC(C)C(=O)C(C)(O)C2OC2C3OC(C)=O)C1O (centres unmarked) [Compound 9, 19,20-epoxycytochalasin D]",–,10.3 ± 5.07 µg/mL,–,35 ± 3 µL/min/mg,40 ± 3.7 min,> 240 min,–,–,> 64 µg/mL,> 64 µg/mL,–,–,–,–,–,–
